Source: paper PMC9817970 (Cancers, 2022)

Columns and labels:
Assay in all cases: Kinase panel profiling
Format in all cases: biochemical
Details in all cases: 10 μM ATP
[1] = target: T1, VRK2 (Homo sapiens, UniProt Q86Y07)
T1 construct: purchased Reaction Biology Corp
Procedure: (§1) Kinase panel profiling was conducted by Reaction Biology Corp. (San Diego, CA, USA). A single dose (1.0 μM) of 6r was tested against 371 recombinant human kinases in the presence of 10 μM ATP.

[2] = target: T2, ROS/ROS1 (Homo sapiens, UniProt P08922)
T2 construct: purchased Reaction Biology Corp
Procedure: as §1

[3] = target: T3, MYLK3 (Homo sapiens, UniProt Q32MK0)
T3 construct: purchased Reaction Biology Corp
Procedure: as §1

[4] = target: T4, NEK5 (Homo sapiens, UniProt Q6P3R8)
T4 construct: purchased Reaction Biology Corp
Procedure: as §1

[5] = target: T5, PKCa (Homo sapiens, UniProt P17252)
T5 construct: purchased Reaction Biology Corp
Procedure: as §1

[6] = target: T6, MAST3 (Homo sapiens, UniProt O60307)
T6 construct: purchased Reaction Biology Corp
Procedure: as §1

[7] = target: T7, MEK2 (Homo sapiens, UniProt P36507)
T7 construct: purchased Reaction Biology Corp
T7 sequence (P36507 whole entry): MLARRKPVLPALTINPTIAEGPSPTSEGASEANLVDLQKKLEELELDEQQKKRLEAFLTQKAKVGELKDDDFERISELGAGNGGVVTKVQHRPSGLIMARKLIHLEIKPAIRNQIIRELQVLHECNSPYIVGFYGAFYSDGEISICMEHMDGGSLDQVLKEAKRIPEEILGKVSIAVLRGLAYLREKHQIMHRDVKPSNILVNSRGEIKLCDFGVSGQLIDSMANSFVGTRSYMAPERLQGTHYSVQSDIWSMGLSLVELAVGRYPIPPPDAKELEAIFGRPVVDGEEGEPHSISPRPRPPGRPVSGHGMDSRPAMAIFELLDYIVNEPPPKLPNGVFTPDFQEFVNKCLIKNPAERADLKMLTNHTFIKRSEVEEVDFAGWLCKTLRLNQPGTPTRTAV
Procedure: as §1

[8] = target: T8, GRK1 (Homo sapiens, UniProt Q15835)
T8 construct: purchased Reaction Biology Corp
Procedure: as §1

[9] = target: T9, ARK5/NUAK1 (Homo sapiens, UniProt O60285)
T9 construct: purchased Reaction Biology Corp
T9 sequence (O60285 whole entry): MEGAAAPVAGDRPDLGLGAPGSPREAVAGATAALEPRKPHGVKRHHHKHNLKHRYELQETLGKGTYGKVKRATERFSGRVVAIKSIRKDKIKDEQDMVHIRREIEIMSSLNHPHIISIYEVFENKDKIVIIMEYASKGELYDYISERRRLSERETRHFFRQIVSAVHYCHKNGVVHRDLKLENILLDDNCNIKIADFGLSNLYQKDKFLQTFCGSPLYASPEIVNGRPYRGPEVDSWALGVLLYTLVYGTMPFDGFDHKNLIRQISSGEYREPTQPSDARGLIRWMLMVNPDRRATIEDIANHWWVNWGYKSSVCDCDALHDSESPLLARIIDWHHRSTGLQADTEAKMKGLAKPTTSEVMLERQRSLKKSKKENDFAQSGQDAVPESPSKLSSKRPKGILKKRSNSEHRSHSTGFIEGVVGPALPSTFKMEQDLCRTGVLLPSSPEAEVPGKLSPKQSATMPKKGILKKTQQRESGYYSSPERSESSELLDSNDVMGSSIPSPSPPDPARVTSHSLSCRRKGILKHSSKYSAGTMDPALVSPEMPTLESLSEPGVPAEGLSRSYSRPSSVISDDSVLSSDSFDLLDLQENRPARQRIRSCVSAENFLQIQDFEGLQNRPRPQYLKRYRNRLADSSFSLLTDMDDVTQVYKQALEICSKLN
Procedure: as §1

[10] = target: T10, KSR1 (Homo sapiens, UniProt Q8IVT5)
T10 construct: purchased Reaction Biology Corp
Procedure: as §1

[11] = target: T11, CK1G3 (Homo sapiens, UniProt Q9Y6M4)
T11 construct: purchased Reaction Biology Corp
Procedure: as §1

[12] = target: T12, HIPK1 (Homo sapiens, UniProt Q86Z02)
T12 construct: purchased Reaction Biology Corp
Procedure: as §1

[13] = target: T13, STK38L/NDR2 (Homo sapiens, UniProt Q9Y2H1)
T13 construct: purchased Reaction Biology Corp
Procedure: as §1

[14] = target: T14, ITK (Homo sapiens, UniProt Q08881)
T14 construct: purchased Reaction Biology Corp
Procedure: as §1

[15] = target: T15, DCAMKL2 (Homo sapiens, UniProt Q8N568)
T15 construct: purchased Reaction Biology Corp
T15 sequence (Q8N568 whole entry): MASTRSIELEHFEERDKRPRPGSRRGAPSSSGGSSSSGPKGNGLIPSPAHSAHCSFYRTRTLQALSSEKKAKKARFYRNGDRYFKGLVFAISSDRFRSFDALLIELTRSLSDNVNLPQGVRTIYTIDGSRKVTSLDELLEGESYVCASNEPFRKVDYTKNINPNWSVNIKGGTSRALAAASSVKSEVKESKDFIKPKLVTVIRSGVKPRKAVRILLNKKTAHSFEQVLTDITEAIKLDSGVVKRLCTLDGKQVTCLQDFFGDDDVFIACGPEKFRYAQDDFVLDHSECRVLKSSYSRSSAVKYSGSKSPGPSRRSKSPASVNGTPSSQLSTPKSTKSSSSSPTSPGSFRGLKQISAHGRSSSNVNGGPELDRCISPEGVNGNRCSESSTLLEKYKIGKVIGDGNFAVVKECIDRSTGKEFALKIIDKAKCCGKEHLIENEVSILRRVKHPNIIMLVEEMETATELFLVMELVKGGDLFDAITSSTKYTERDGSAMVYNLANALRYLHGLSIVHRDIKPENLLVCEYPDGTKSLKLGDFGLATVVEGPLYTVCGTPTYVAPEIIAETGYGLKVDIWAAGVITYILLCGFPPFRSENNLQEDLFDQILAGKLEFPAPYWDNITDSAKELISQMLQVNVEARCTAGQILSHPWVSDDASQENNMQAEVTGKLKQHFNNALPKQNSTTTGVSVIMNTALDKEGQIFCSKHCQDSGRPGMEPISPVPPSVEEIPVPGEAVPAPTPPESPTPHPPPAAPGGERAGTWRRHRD
Procedure: as §1

[16] = target: T16, MEK3 (Homo sapiens, UniProt P46734)
T16 construct: purchased Reaction Biology Corp
Procedure: as §1

[17] = target: T17, DRAK1/STK17A (Homo sapiens, UniProt Q9UEE5)
T17 construct: purchased Reaction Biology Corp
T17 sequence (Q9UEE5 whole entry): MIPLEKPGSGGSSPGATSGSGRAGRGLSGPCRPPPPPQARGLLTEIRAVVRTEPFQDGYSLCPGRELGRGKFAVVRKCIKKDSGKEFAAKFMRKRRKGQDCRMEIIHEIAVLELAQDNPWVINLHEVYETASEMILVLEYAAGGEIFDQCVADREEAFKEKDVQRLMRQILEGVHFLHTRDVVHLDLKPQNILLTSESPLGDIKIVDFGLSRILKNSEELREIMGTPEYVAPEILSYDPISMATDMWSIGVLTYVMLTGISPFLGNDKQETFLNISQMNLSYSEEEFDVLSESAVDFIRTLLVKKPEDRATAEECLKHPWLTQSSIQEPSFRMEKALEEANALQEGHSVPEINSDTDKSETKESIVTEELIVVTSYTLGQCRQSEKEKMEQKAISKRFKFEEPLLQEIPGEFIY
Procedure: as §1

[18] = target: T18, CDK4/cyclin D3 (Homo sapiens, UniProt P11802)
T18 construct: purchased Reaction Biology Corp
Procedure: as §1

[19] = target: T19, CLK2 (Homo sapiens, UniProt P49760)
T19 construct: purchased Reaction Biology Corp
Procedure: as §1

[20] = target: T20, ASK1/MAP3K5 (Homo sapiens, UniProt Q99683)
T20 construct: purchased Reaction Biology Corp
Procedure: as §1

[21] = target: T21, FGFR1 (Homo sapiens, UniProt P11362)
T21 construct: purchased Reaction Biology Corp
Procedure: as §1

[22] = target: T22, EPHA2 (Homo sapiens, UniProt P29317)
T22 construct: purchased Reaction Biology Corp
Procedure: as §1

[23] = target: T23, CTK/MATK (Homo sapiens, UniProt P42679)
T23 construct: purchased Reaction Biology Corp
T23 sequence (P42679 whole entry): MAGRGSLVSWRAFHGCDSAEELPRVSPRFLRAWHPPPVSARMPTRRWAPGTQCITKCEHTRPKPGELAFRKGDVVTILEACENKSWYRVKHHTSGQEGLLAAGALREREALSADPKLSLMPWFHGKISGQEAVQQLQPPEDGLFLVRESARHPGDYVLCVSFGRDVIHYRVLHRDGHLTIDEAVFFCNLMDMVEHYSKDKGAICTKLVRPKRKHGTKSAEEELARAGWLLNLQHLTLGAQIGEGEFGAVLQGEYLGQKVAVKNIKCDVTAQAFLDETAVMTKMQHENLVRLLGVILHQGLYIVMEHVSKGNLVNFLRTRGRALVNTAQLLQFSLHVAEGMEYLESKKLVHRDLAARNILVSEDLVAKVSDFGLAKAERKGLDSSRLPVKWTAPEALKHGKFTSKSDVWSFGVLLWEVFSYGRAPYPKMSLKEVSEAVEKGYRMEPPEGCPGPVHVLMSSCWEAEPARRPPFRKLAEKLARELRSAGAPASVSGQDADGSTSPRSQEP
Procedure: as §1

[24] = target: T24, TNK1 (Homo sapiens, UniProt Q13470)
T24 construct: purchased Reaction Biology Corp
Procedure: as §1

[25] = target: T25, TXK (Homo sapiens, UniProt P42681)
T25 construct: purchased Reaction Biology Corp
Procedure: as §1

[26] = target: T26, TAOK1 (Homo sapiens, UniProt Q7L7X3)
T26 construct: purchased Reaction Biology Corp
Procedure: as §1

[27] = target: T27, CDK1/cyclin B (Homo sapiens, UniProt P06493)
T27 construct: purchased Reaction Biology Corp
Procedure: as §1

[28] = target: T28, CDK9/CYCLIN K (Homo sapiens, UniProt P50750)
T28 construct: purchased Reaction Biology Corp
Procedure: as §1

[29] = target: T29, LRRK2 (Homo sapiens, UniProt Q5S007)
T29 construct: purchased Reaction Biology Corp
Procedure: as §1

[30] = target: T30, CAMK2b (Homo sapiens, UniProt Q13554)
T30 construct: purchased Reaction Biology Corp
Procedure: as §1

[31] = target: T31, CDK5/P25 (Homo sapiens, UniProt Q00535)
T31 construct: purchased Reaction Biology Corp
Procedure: as §1

[32] = target: T32, GRK2 (Homo sapiens, UniProt P25098)
T32 construct: purchased Reaction Biology Corp
T32 sequence (P25098 whole entry): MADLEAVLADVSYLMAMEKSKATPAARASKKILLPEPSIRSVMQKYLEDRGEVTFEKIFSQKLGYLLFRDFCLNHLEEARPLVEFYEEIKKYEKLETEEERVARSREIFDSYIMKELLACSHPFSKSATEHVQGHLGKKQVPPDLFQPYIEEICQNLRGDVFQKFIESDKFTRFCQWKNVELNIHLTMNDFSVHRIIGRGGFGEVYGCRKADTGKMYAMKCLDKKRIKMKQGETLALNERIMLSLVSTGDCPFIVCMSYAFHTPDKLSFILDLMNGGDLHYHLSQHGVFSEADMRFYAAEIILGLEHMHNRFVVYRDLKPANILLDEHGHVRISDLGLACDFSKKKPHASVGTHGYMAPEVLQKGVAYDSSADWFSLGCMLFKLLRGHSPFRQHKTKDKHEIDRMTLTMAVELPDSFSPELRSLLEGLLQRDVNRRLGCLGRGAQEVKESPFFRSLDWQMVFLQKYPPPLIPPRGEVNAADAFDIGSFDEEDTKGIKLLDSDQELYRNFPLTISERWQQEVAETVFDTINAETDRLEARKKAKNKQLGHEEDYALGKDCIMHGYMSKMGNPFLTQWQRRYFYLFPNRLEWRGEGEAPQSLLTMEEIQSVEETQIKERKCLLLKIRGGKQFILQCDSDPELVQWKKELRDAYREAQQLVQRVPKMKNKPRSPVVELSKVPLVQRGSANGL
Procedure: as §1

[33] = target: T33, PKCb2 (Homo sapiens, UniProt P05771)
T33 construct: purchased Reaction Biology Corp
Procedure: as §1

[34] = target: T34, DYRK2 (Homo sapiens, UniProt Q92630)
T34 construct: purchased Reaction Biology Corp
Procedure: as §1

[35] = target: T35, BMX/ETK (Homo sapiens, UniProt P51813)
T35 construct: purchased Reaction Biology Corp
Procedure: as §1

[36] = target: T36, CAMK1g (Homo sapiens, UniProt Q96NX5)
T36 construct: purchased Reaction Biology Corp
Procedure: as §1

[37] = target: T37, DYRK4 (Homo sapiens, UniProt Q9NR20)
T37 construct: purchased Reaction Biology Corp
Procedure: as §1

[38] = target: T38, LIMK1 (Homo sapiens, UniProt P53667)
T38 construct: purchased Reaction Biology Corp
Procedure: as §1

[39] = target: T39, MARK1 (Homo sapiens, UniProt Q9P0L2)
T39 construct: purchased Reaction Biology Corp
T39 sequence (Q9P0L2 whole entry): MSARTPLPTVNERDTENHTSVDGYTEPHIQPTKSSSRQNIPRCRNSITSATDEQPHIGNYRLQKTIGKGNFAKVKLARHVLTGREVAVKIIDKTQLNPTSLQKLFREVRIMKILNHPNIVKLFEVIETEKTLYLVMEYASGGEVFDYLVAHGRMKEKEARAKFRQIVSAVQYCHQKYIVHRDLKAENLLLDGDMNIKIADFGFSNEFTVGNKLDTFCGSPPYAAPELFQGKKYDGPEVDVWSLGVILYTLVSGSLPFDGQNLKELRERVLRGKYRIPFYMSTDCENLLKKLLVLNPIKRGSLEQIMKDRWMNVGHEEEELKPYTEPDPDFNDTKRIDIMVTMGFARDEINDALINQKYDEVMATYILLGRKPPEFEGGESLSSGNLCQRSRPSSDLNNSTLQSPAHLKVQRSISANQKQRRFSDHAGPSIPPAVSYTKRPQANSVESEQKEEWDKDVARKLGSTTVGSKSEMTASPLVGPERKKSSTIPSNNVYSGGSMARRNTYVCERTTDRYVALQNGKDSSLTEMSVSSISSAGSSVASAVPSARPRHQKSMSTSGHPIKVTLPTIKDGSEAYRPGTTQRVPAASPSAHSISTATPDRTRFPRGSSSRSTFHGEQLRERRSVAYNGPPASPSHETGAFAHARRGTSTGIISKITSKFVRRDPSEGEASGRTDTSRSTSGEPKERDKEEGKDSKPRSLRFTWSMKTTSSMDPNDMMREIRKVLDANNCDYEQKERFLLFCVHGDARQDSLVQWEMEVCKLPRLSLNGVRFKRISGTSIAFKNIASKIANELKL
Procedure: as §1

[40] = target: T40, MLK4 (Homo sapiens, UniProt Q5TCX8)
T40 construct: purchased Reaction Biology Corp
Procedure: as §1

[41] = target: T41, CLK3 (Homo sapiens, UniProt P49761)
T41 construct: purchased Reaction Biology Corp
Procedure: as §1

[42] = target: T42, GSK3a (Homo sapiens, UniProt P49840)
T42 construct: purchased Reaction Biology Corp
Procedure: as §1

[43] = target: T43, FRK/PTK5 (Homo sapiens, UniProt P42685)
T43 construct: purchased Reaction Biology Corp
Procedure: as §1

With `Cc1ccc(NC(=O)c2ccc(CN3CCN(C)CC3)c(C(F)(F)F)c2)cc1-c1cnc2sc(N)nc2c1` [6r] the inhibition at 1 µM [1] was 20.1%, the inhibition at 1 µM [2] was 6.6% and the inhibition at 1 µM [3] was 0%. The inhibition at 1 µM [4] was 0%, the inhibition at 1 µM [5] was 4.2% and the inhibition at 1 µM [6] was 0%. It also gave an inhibition at 1 µM [7] of 7.1%, an inhibition at 1 µM [8] of 16.7% and an inhibition at 1 µM [9] of 14.7%. It also gave an inhibition at 1 µM [10] of 5.5%, an inhibition at 1 µM [11] of 32% and an inhibition at 1 µM [12] of 5.2%. For the same molecule, the inhibition at 1 µM [13] was 6.5%, the inhibition at 1 µM [14] was 3.8% and the inhibition at 1 µM [15] was 0%. The inhibition at 1 µM [16] was 5.2%, the inhibition at 1 µM [17] was 0% and the inhibition at 1 µM [18] was 9.8%. It also gave an inhibition at 1 µM [19] of 38.7%, an inhibition at 1 µM [20] of 0% and an inhibition at 1 µM [21] of 20.7%. The inhibition at 1 µM [22] was 77.4%, the inhibition at 1 µM [23] was 8.1% and the inhibition at 1 µM [24] was 36.2%. The inhibition at 1 µM [25] was 16.8%, the inhibition at 1 µM [26] was 6.1% and the inhibition at 1 µM [27] was 0%. The inhibition at 1 µM [28] was 0%, the inhibition at 1 µM [29] was 5.1% and the inhibition at 1 µM [30] was 0%. For the same molecule, the inhibition at 1 µM [31] was 8.7%, the inhibition at 1 µM [32] was 0% and the inhibition at 1 µM [33] was 12.7%. The inhibition at 1 µM [34] was 0.6%, the inhibition at 1 µM [35] was 31.5% and the inhibition at 1 µM [36] was 20.8%. The inhibition at 1 µM [37] was 0%, the inhibition at 1 µM [38] was 87.2% and the inhibition at 1 µM [39] was 0%. It also gave an inhibition at 1 µM [40] of 6.5%, an inhibition at 1 µM [41] of 0% and an inhibition at 1 µM [42] of 7.4%. For the same molecule, the inhibition at 1 µM [43] was 98.4%.
